Test results published in patent US11000033B2, “Ketone or oxime compound, and herbicide” (NISSAN CHEMICAL CORPORATION, priority 2014, dated 2021).

Experiments:
Format in all cases: in vivo
[1] = system: Echinochloa crus-galli var. crus-galli; test: Test Example 4: herbicidal effect by soil treatment (symbol H); conditions: application herbicide amount 320 g/ha
How it was run: (§1)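 Seeds were sown in sterilized diluvial soil, covered with about 1.5 cm of soil, and the soil surface was sprayed with a water-diluted emulsion of the compound at a predetermined rate. Plants grew in a greenhouse at 25° C. to 30° C.; effects were scored visually 3 weeks after application.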

Avena fatua [2] = test: Test Example 5: herbicidal effect by foliage application, plastic box (symbol I); conditions: 320 g/ha, 3 weeks after application
How it was run: (§2)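 Sowing in sterilized diluvial soil, 14 days' greenhouse growth at 25° C. to 30° C., then uniform small-sprayer foliar application of aqueous emulsion dilution; plants scored three weeks afterwards.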

Veronica persica [3] = test: Test Example 4: herbicidal effect by soil treatment (symbol R); conditions: application herbicide amount 320 g/ha
How it was run: as §1

Avena fatua [4] = test: Test Example 4: herbicidal effect by soil treatment (symbol I); conditions: application herbicide amount 320 g/ha
How it was run: as §1

Veronica persica [5] = test: Test Example 5: herbicidal effect by foliage application, plastic box (symbol R); conditions: 320 g/ha, 3 weeks after application
How it was run: as §2

Digitaria ciliaris = test: Test Example 4: herbicidal effect by soil treatment (symbol F); conditions: application herbicide amount 320 g/ha
How it was run: as §1

Lolium multiflorum Lam. = test: Test Example 4: herbicidal effect by soil treatment (symbol K); conditions: application herbicide amount 320 g/ha
How it was run: as §1

Chenopodium album [6] = test: Test Example 5: herbicidal effect by foliage application, plastic box (symbol O); conditions: 320 g/ha, 3 weeks after application
How it was run: as §2

Chenopodium album [7] = test: Test Example 4: herbicidal effect by soil treatment (symbol O); conditions: application herbicide amount 320 g/ha
How it was run: as §1

transplanted rice plant = test: Test Example 1: effect on crop, application before weed generation in submerged conditions (symbol a); conditions: application herbicide amount 320 g/ha
How it was run: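 Alluvial soil pots flooded to 4 cm water, sown with Echinochloa oryzacola, Scirpus juncoides and Monochoria vaginalis, then transplanted with 2.5 leaf stage rice seedlings; pre-emergence application. Greenhouse 25° C. to 30° C.; scored 0–5 by herbicidal ratio 3 weeks after application.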

Leptochloa chinensis = test: Test Example 3: herbicidal effect by foliage application, Wagner pot (symbol D); conditions: application herbicide amount 320 g/ha
How it was run: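 Seeds sown in alluvial soil kept under 0.1–0.5 cm water, greenhouse 25–30 °C; 14 d growth. Leaves treated by small sprayer with water-diluted emulsion at a predetermined rate. Effect graded by set scale, 3 weeks.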

Setaria viridis = test: Test Example 5: herbicidal effect by foliage application, plastic box (symbol G); conditions: 320 g/ha, 3 weeks after application
How it was run: as §2

corn = test: Test Example 5: effect on crop by foliage application, plastic box (symbol c); conditions: 320 g/ha, 3 weeks after application
How it was run: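 A greenhouse held between 25° C. and 30° C. was used to grow plants sown spot-wise, beneath ~1.5 cm of soil, in boxes of sterilized diluvial soil.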

[8] = system: Echinochloa oryzacola Vasing.; test: Test Example 2: herbicidal activity, application during weed generation in submerged conditions (symbol A); conditions: Table 23; application herbicide amount 320 g/ha; grade 0-5 by criteria of Test Example 1
How it was run: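 Each pot contained alluvial soil under 4 cm of water with seeds of all three weeds sown together. Following growth at 25° C. to 30° C. to the one- to two-leaf stage, the floodwater received diluted emulsion at a predetermined amount; visual assessment followed at 3 weeks.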

Compound	Herbicidal effect grade, H: Echinochloa crus-galli var. crus-galli [1]	I: Avena fatua, herbicidal effect (criteria of Test Example 1) (Avena fatua [2])	Herbicidal effect grade, R: Veronica persica (Veronica persica [3])	Herbicidal effect grade, I: Avena fatua (Avena fatua [4])	R: Veronica persica, herbicidal effect (criteria of Test Example 1) (Veronica persica [5])	Herbicidal effect grade, F: Digitaria ciliaris (Digitaria ciliaris)	Herbicidal effect grade, K: Lolium multiflorum Lam. (Lolium multiflorum Lam.)	O: Chenopodium album, herbicidal effect (criteria of Test Example 1) (Chenopodium album [6])	Herbicidal effect grade, O: Chenopodium album (Chenopodium album [7])	Effect grade on crop, a: transplanted rice plant (transplanted rice plant)	H: Echinochloa crus-galli var. crus-galli, herbicidal effect grade [1]	R: Veronica persica, herbicidal effect grade (Veronica persica [3])	G: Setaria viridis, herbicidal effect (criteria of Test Example 1) (Setaria viridis)	I: Avena fatua, herbicidal effect grade (Avena fatua [4])	c: corn, effect on crop (criteria of Test Example 1) (corn)	Herbicidal effect grade, A: Echinochloa oryzacola Vasing. [8]	F: Digitaria ciliaris, herbicidal effect grade (Digitaria ciliaris)	K: Lolium multiflorum Lam., herbicidal effect grade (Lolium multiflorum Lam.)	O: Chenopodium album, herbicidal effect grade (Chenopodium album [7])	herbicidal effect on D (Leptochloa chinensis), grade 0-5 (Leptochloa chinensis)	other results
COc1cc(Br)cc(F)c1C1=C(O)CC(CC(C)=O)C1=O (stereo not drawn) [7-029]	2 (Herbicidal ratio of 20% or higher and lower than 40%)	3 (Herbicidal ratio of 40% or higher and lower than 70%)	0 (Herbicidal ratio of 5% or lower (almost no effect))	0 (Herbicidal ratio of 5% or lower (almost no effect))	0 (Herbicidal ratio of 5% or lower (almost no effect))	0 (Herbicidal ratio of 5% or lower (almost no effect))	3 (Herbicidal ratio of 40% or higher and lower than 70%)	0 (Herbicidal ratio of 5% or lower (almost no effect))	0 (Herbicidal ratio of 5% or lower (almost no effect))	0 (Herbicidal ratio of 5% or lower (almost no effect))											D (Leptochloa chinensis) herbicidal effect grade (Leptochloa chinensis; Table 24): 4 (Herbicidal ratio of 70% or higher and lower than 90%)
CON=C(C)CC1CC(OC(=O)N(C)C)=C(c2c(C)cc(-c3ccc(Cl)cc3)cc2C)C1=O (mixture of isomers) [6-063]		5 (Herbicidal ratio of 90% or more (almost completely withered))			0 (Herbicidal ratio of 5% or lower (almost no effect))					4 (Herbicidal ratio of 70% or higher and lower than 90%)	0 (Herbicidal ratio of 5% or lower (almost no effect))	0 (Herbicidal ratio of 5% or lower (almost no effect))	5 (Herbicidal ratio of 90% or more (almost completely withered))	0 (Herbicidal ratio of 5% or lower (almost no effect))	5 (Herbicidal ratio of 90% or more (almost completely withered))	2 (Herbicidal ratio of 20% or higher and lower than 40%)	5 (Herbicidal ratio of 90% or more (almost completely withered))	0 (Herbicidal ratio of 5% or lower (almost no effect))	0 (Herbicidal ratio of 5% or lower (almost no effect))	5 (Herbicidal ratio of 90% or more (almost completely withered))	
CC(=O)CC1CC(O)=C(c2c(C)cc(Oc3ccc(C(F)(F)F)cn3)cc2C)C1=O (stereo not drawn) [7-019]	0 (Herbicidal ratio of 5% or lower (almost no effect))	0 (Herbicidal ratio of 5% or lower (almost no effect))	0 (Herbicidal ratio of 5% or lower (almost no effect))	0 (Herbicidal ratio of 5% or lower (almost no effect))	0 (Herbicidal ratio of 5% or lower (almost no effect))	3 (Herbicidal ratio of 40% or higher and lower than 70%)	0 (Herbicidal ratio of 5% or lower (almost no effect))	0 (Herbicidal ratio of 5% or lower (almost no effect))	0 (Herbicidal ratio of 5% or lower (almost no effect))	0 (Herbicidal ratio of 5% or lower (almost no effect))			3 (Herbicidal ratio of 40% or higher and lower than 70%)		2 (Herbicidal ratio of 20% or higher and lower than 40%)					4 (Herbicidal ratio of 70% or higher and lower than 90%)	
CON=C(C)CC1CC(OC(=O)SC(C)(C)C)=C(c2c(C)cc(-c3ccc(Cl)cc3)cc2C)C1=O (stereo not drawn) [6-082]		5 (Herbicidal ratio of 90% or more (almost completely withered))			4 (Herbicidal ratio of 70% or higher and lower than 90%)					5 (Herbicidal ratio of 90% or more (almost completely withered))	5 (Herbicidal ratio of 90% or more (almost completely withered))	3 (Herbicidal ratio of 40% or higher and lower than 70%)	5 (Herbicidal ratio of 90% or more (almost completely withered))	3 (Herbicidal ratio of 40% or higher and lower than 70%)	5 (Herbicidal ratio of 90% or more (almost completely withered))	4 (Herbicidal ratio of 70% or higher and lower than 90%)	5 (Herbicidal ratio of 90% or more (almost completely withered))	5 (Herbicidal ratio of 90% or more (almost completely withered))	0 (Herbicidal ratio of 5% or lower (almost no effect))	5 (Herbicidal ratio of 90% or more (almost completely withered))	
CC(=O)CC1CC(O)=C(c2c(C)cc(-c3ccccc3)cc2C)C1=O (stereo not drawn) [7-004]	5 (Herbicidal ratio of 90% or more (almost completely withered))	2 (Herbicidal ratio of 20% or higher and lower than 40%)	0 (Herbicidal ratio of 5% or lower (almost no effect))	0 (Herbicidal ratio of 5% or lower (almost no effect))		5 (Herbicidal ratio of 90% or more (almost completely withered))	5 (Herbicidal ratio of 90% or more (almost completely withered))	2 (Herbicidal ratio of 20% or higher and lower than 40%)	0 (Herbicidal ratio of 5% or lower (almost no effect))	5 (Herbicidal ratio of 90% or more (almost completely withered))			4 (Herbicidal ratio of 70% or higher and lower than 90%)		5 (Herbicidal ratio of 90% or more (almost completely withered))	4 (Herbicidal ratio of 70% or higher and lower than 90%)				5 (Herbicidal ratio of 90% or more (almost completely withered))	
